# Source: patent US20230089073A1 (Carmot Therapeutics, Inc., priority 2021, published 2023)
# Biological target: T1, human GLP-1 receptor (Homo sapiens, UniProt P43220)
# T1 construct: expressed in transfected cells
# Experiment: GLP-1R cAMP Assay
# Assay type: cell-based
# Settings: cAMP accumulation in CHO cells stably overexpressing the human GLP-1 receptor; 30 min treatment; HitHunter cAMP kit; read-out: EC50
# In short: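 Luminescent enzyme-complementation detection of cAMP, read after cell lysis and overnight incubation, with dose-response curve fitting. Stimulation lasted 30 min, using 20-point triplicate dosing on CHO cells (10,000 per well) stably overexpressing human GLP-1R.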
# T1 sequence (P43220 24-463): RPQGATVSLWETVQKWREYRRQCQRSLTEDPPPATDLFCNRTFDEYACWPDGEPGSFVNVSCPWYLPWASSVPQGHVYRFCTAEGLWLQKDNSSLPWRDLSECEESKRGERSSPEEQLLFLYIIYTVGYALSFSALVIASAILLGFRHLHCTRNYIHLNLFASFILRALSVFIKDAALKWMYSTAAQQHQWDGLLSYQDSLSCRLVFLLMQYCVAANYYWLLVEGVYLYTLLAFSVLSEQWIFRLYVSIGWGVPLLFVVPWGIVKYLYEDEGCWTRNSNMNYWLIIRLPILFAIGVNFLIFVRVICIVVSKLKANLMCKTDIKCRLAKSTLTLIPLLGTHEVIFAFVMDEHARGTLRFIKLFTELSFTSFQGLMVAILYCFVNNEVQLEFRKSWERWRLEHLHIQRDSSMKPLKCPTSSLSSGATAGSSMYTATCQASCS
row,EC50 [nM],SMILES
1,> 500,"O=C(O)c1ccc2nc(CN3CCN(Cc4cc5ccc(-c6ccc(Cl)cc6Cl)cc5o4)CC3)n(C[C@@H]3CCO3)c2c1 [Example 27, (S)-2-((4-((6-(2,4-Dichlorophenyl)benzofuran-2-yl)methyl)piperazin-1-yl)methyl)-1-(oxetan-2-ylmethyl)-1H-benzo[d]imidazole-6-carboxylic acid]"
2,50 to 500,"Cc1ccc(Cc2cccc(C(=O)N3CCN(Cc4nc5ccc(C(=O)O)cc5n4C[C@@H]4CCO4)CC3)c2)c(Cl)c1 [Example 32, (S)-2-((4-(3-(2-Chloro-4-methylbenzyl)benzoyl)piperazin-1-yl)methyl)-1-(oxetan-2-ylmethyl)-1H-benzo[d]imidazole-6-carboxylic acid]"
3,< 50,"Cc1ccc(Oc2cc(C(=O)N3CCN(Cc4nc5ccc(C(=O)O)cc5n4C[C@@H]4CCO4)CC3)ncn2)cc1 [Example 34, (S)-1-(Oxetan-2-ylmethyl)-2-((4-(6-(p-tolyloxy)pyrimidine-4-carbonyl)piperazin-1-yl)methyl)-1H-benzo[d]imidazole-6-carboxylic acid]"
4,> 500,"O=C(O)c1ccc2nc(CN3CCN(C(=O)c4ccc(COc5ccc(Cl)cc5F)o4)CC3)n(C[C@@H]3CCO3)c2c1 [Example 36, (S)-2-((4-(5-((4-Chloro-2-fluorophenoxy)methyl)furan-2-carbonyl)-piperazin-1-yl)methyl)-1-(oxetan-2-ylmethyl)-1H-benzo[d]imidazole-6-carboxylic acid]"
5,50 to 500,"Cc1ccc2oc3cc(C(=O)N4CCN(Cc5nc6ccc(C(=O)O)cc6n5C[C@@H]5CCO5)CC4)ccc3c(=O)c2c1 [Example 44, (S)-2-((4-(7-Methyl-9-oxo-9H-xanthene-3-carbonyl)piperazin-1-yl)methyl)-1-(oxetan-2-ylmethyl)-1H-benzo[d]imidazole-6-carboxylic acid]"
6,50 to 500,"CCn1cncc1Cn1c(CN2CCN(C(=O)c3cccc(N(C)c4ccc(C)cc4)c3)CC2)nc2ccc(C(=O)O)cc21 [Example 46, 1-((1-Ethyl-1H-imidazol-5-yl)methyl)-2-((4-(3-(methyl(p-tolyl)amino)benzoyl)piperazin-1-yl)methyl)-1H-benzo[d]imidazole-6-carboxylic acid]"
7,50 to 500,"CCn1cncc1Cn1c(CN2CCN(C(=O)c3cccc(Oc4ccc(C)cc4Cl)c3)CC2)nc2ccc(C(=O)O)cc21 [Example 57, 2-((4-(3-(2-Chloro-4-methylphenoxy)benzoyl)piperazin-1-yl)methyl)-1-((1-ethyl-1H-imidazol-5-yl)methyl)-1H-benzo[d]imidazole-6-carboxylic acid]"
8,50 to 500,"O=C(O)c1ccc2nc(CN3CCN(C(=O)c4ccc(Cc5ccc(Cl)cc5Cl)o4)CC3)n(C[C@@H]3CCO3)c2c1 [Example 59, (S)-2-((4-(5-(2,4-Dichlorobenzyl)furan-2-carbonyl)piperazin-1-yl)methyl)-1-(oxetan-2-ylmethyl)-1H-benzo[d]imidazole-6-carboxylic acid]"
9,< 50,"O=C(O)c1ccc2nc(CN3CCC(Cc4cnc(COc5ccc(Cl)cc5Cl)o4)CC3)n(C[C@@H]3CCO3)c2c1 [Example 60, (S)-2-((4-((2-((2,4-Dichlorophenoxy)methyl)oxazol-5-yl)methyl)piperidin-1-yl)methyl)-1-(oxetan-2-ylmethyl)-1H-benzo[d]imidazole-6-carboxylic acid]"
10,> 500,"CN(c1cc(C(=O)N2CCN(Cc3nc4ccc(C(=O)O)cc4n3C[C@@H]3CCO3)CC2)ncn1)C1CCCCC1 [Example 61, (S)-2-((4-(6-(Cyclohexyl(methyl)amino)pyrimidine-4-carbonyl)piperazin-1-yl)methyl)-1-(oxetan-2-ylmethyl)-1H-benzo[d]imidazole-6-carboxylic acid]"
11,> 500,"CN(c1ccccc1)c1cc(C(=O)N2CCN(Cc3nc4ccc(C(=O)O)cc4n3C[C@@H]3CCO3)CC2)ncn1 [Example 62, (S)-2-((4-(6-(Methyl(phenyl)amino)pyrimidine-4-carbonyl)piperazin-1-yl)methyl)-1-(oxetan-2-ylmethyl)-1H-benzo[d]imidazole-6-carboxylic acid]"
